# Reference: US9249102B2 (priority 2012, dated 2016)
# Read-outs that look alike come from different tables or passages of the source.
# Legend:
# [1] = test system: Haemonchus contortus; experiment: Method A: Haemonchus contortus L1 larvae, microtitre plate screen; settings: 96 h, read-out: motility inhibition
# [2] = test system: Cooperia oncophora; experiment: Method C: Cooperia oncophora L1 larvae in vitro; settings: 96 h, read-out: inhibition of motility
# [3] = test system: microfilaria of Dirofilaria immitis; experiment: Method F: microfilaria of Dirofilaria immitis, survival at 24 hours
# [4] = Method G: permeability in the Caco-2/TC7 in vitro model; settings: human, Caco-2, pH 6.5
# [5] = survival of microfilaria at 24 hours
Compound,inhibition at 5 µg/mL [1] [%],inhibition at 5 µg/mL [2] [%],EC50 [3] [µg/mL],"EC50 [3, 5] [µg/mL]",Papp A→B at 20 μM [4] [×10⁻⁶ cm/s]
"O=C(CO[C@H]1CC[C@H](Nc2ccc([N+](=O)[O-])c(C(F)(F)F)c2)CC1)N1CCN(CC2Cc3cc(Cl)ccc3O2)CC1 (stereo partly shown) [Compound 76, 1-[4-[(5-chloro-2,3-dihydro-1-benzofuran-2-yl)methyl]piperazin-1-yl]-2-[(4-[[4-nitro-3-(trifluoromethyl)phenyl]amino]cyclohexyl)oxy]ethan-1-one]",≥ 90,≥ 90,< 5,–,–
CC(c1cc2cc(Cl)ccc2o1)N1CCN(C(=O)CO[C@H]2CC[C@H](Nc3ccc([N+](=O)[O-])c(C(F)(F)F)c3)CC2)CC1 (stereo partly shown) [Compound 300],≥ 90,≥ 90,–,< 0.1,–
"O=C(CO[C@H]1CC[C@H](Nc2ccc([N+](=O)[O-])c(C(F)(F)F)c2)CC1)N1CCN(C(=O)C2Cc3cc(F)ccc3O2)CC1 (stereo partly shown) [Compound 80, 1-[4-(5-fluoro-2,3-dihydro-benzofuran-2-carbonyl)-piperazin-1-yl]-2-[4-(4-nitro-3-trifluoromethyl-phenylamino)-cyclohexyloxy]-ethanone]",≥ 90,–,–,–,12.1
"O=C(CO[C@H]1CC[C@H](Nc2ccc([N+](=O)[O-])c(C(F)(F)F)c2)CC1)N1CCN(C(=O)c2cc3cc(C(F)(F)F)ccc3o2)CC1 [Compound 183, 2-[(4-[[4-nitro-3-(trifluoromethyl)phenyl]amino]cyclohexan-1-e)oxy]-1-(4-[[5-(trifluoromethyl)-1-benzofuran-2-yl]carbonyl]piperazin-1-yl)ethan-1-one]",≥ 90,≥ 90,–,< 1,–
"Cc1cc(N2CCN(C(=O)CO[C@H]3CC[C@H](Nc4ccc([N+](=O)[O-])c(C(F)(F)F)c4)CC3)CC2)nc2ccc(F)cc12 [Compound 99, 1-[4-(6-fluoro-4-methyl-2-quinolyl)piperazin-1-yl]-2-[4-[4-nitro-3-(trifluoromethyl)anilino]cyclohexoxy]ethanone]",≥ 90,≥ 90,–,< 1,–
"O=C(CO[C@H]1CC[C@H](Nc2ccc(S(=O)(=O)C(F)(F)F)cc2)CC1)N1CCN(c2ccc3cc(C(F)(F)F)ccc3n2)CC1 [Compound 331, 1-[4-[6-(trifluoromethyl)-2-quinolyl]piperazin-1-yl]-2-[4-[4-(trifluoromethylsulfonyl)anilino]cyclohexoxy]ethanone]",≥ 90,≥ 90,–,–,–
"O=C(COC1CCC(Nc2ccc([N+](=O)[O-])c(C(F)(F)F)c2)CC1)N1CCN(c2ccc3cc(Br)ccc3n2)CC1 (stereo not shown) [Compound 266, 2-[[4-[(4-nitro-3-trifluoromethyl-phenyl)amino]cyclohexyl]oxy]-1-[4-(6-bromoquinolin-2-yl)piperazin-1-yl]ethan-1-one]",≥ 90,≥ 90,–,< 0.1,–
"O=C(CO[C@H]1CC[C@H](Nc2ccc([N+](=O)[O-])c(C(F)(F)F)c2)CC1)N1CCN(c2cnc3ccccc3c2)CC1 [Compound 336, 2-[4-[4-nitro-3-(trifluoromethyl)anilino]cyclohexoxy]-1-[4-(3-quinolyl)piperazin-1-yl]ethanone]",≥ 90,–,–,–,7.9
"O=C(CO[C@H]1CC[C@H](Nc2ccc([N+](=O)[O-])c(C(F)(F)F)c2)CC1)N1CCN(CC2Cc3cc(-c4ccc(F)cc4)ccc3O2)CC1 (stereo partly shown) [Compound 310, 1-{4-[5-(4-fluoro-phenyl)-2,3-dihydro-benzofuran-2-ylmethyl]-piperazin-1-yl}-2-[4-(4-nitro-3-trifluoromethyl-phenylamino)-cyclohexyloxy]-ethanone]",≥ 90,≥ 90,–,< 0.1,–
N#Cc1ccc(N[C@H]2CC[C@H](OCC(=O)N3CCN(CC4Cc5cc(Cl)ccc5O4)CC3)CC2)cc1C(F)(F)F (stereo partly shown) [Compound 82],≥ 90,–,–,–,7.1
"C[C@@H]([C@H]1Cc2cc(F)ccc2O1)N1CCN(C(=O)COC2CCC(Nc3ccc([N+](=O)[O-])c(C(F)(F)F)c3)CC2)CC1 (relative stereo) [Compound 260, 1-(4-((S)-1-((R)-5-fluoro-2,3-dihydrobenzofuran-2-yl)ethyl)piperazin-1-yl)-2-(4-(4-nitro-3-(trifluoromethyl)phenylamino)cyclohexyloxy)ethanone]",≥ 90,≥ 90,–,< 1,–
"CC(c1ccc2cc(F)ccc2c1)N1CCN(C(=O)CO[C@H]2CC[C@H](Nc3ccc([N+](=O)[O-])c(C(F)(F)F)c3)CC2)CC1 (stereo partly shown) [Compound 298, 2-[(4-[[4-nitro-3-(trifluoromethyl)phenyl]amino]cyclohexyl)-oxy]1-[4-[1-(6-fluoronaphthalen-2-yl)ethyl]piperazin-1-yl]ethan-1-one]",≥ 90,≥ 90,–,< 1,–
"O=C(CO[C@H]1CC[C@H](Nc2ccc([N+](=O)[O-])c(C(F)(F)F)c2)CC1)N1CCN(Cc2ccc3cc(C(F)(F)F)ccc3n2)CC1 [Compound 332, 2-[4-(4-nitro-3-trifluoromethyl-phenylamino)-cyclohexyloxy]-1-[4-(6-trifluoromethyl-quinolin-2-ylmethyl)-piperazin-1-yl]-ethanone]",≥ 90,–,–,–,6.5
"CN(c1ccc(C#N)c(C(F)(F)F)c1)[C@H]1CC[C@H](OCC(=O)N2CCN(c3ccc4cc(Br)ccc4n3)CC2)CC1 [Compound 281, 2-[(4-[methyl[4-cyano-3-(trifluoromethyl)phenyl]amino]cyclohexyl)-oxy]-1-[4-(6-bromoquinolin-2-yl)piperazin-1-yl]ethan-1-one]",≥ 90,≥ 90,–,–,–
"O=C(CO[C@H]1CC[C@H](Nc2ccc([N+](=O)[O-])c(C(F)(F)F)c2)CC1)N1CCN(c2ccc3cc(F)ccc3c2F)CC1 [Compound 289, 1-[4-(1,6-difluoro-naphthalen-2-yl)-piperazin-1-yl]-2-[4-(4-nitro-3-trifluoromethyl-phenylamino)-cyclohexyloxy]-ethanone]",≥ 90,≥ 90,–,–,–
"O=C(CO[C@H]1CC[C@H](Nc2ccc([N+](=O)[O-])c(C(F)(F)F)c2)CC1)N1CCN(c2ccc3cc(Cl)ccc3n2)CC1 [Compound 90, 1-[4-(6-chloroquinolin-2-yl)piperazin-1-yl]-2-[(4-[[4-nitro-3-(trifluoromethyl)phenyl]amino]cyclohexyl)oxy]ethan-1-one]",≥ 90,≥ 90,–,< 0.1,–
"CN(c1ccc([N+](=O)[O-])c(C(F)(F)F)c1)[C@H]1CC[C@H](OCC(=O)N2CCN(c3ccc4cc(Br)ccc4n3)CC2)CC1 [Compound 269, 2-[(4-[methyl-[4-nitro-3-(trifluoromethyl)phenyl]amino]cyclohexyl)-oxy]1-[4-(6-bromoquinolin-2-yl)piperazin-1-yl]ethan-1-one]",≥ 90,≥ 90,–,< 5,–
"O=C(CO[C@H]1CC[C@H](Nc2ccc([N+](=O)[O-])c(C(F)(F)F)c2)CC1)N1CCN(c2nc3cc(F)ccc3s2)CC1 [Compound 237, 1-[4-(5-fluoro-1,3-benzothiazol-2-yl)piperazin-1-yl]-2-[[4-[[4-nitro-3-(trifluoromethyl)pheny-1]amino]cyclohexyl]oxy]ethan-1-one]",≥ 90,≥ 90,–,< 0.1,–
"Cc1cc(N2CCN(C(=O)CO[C@H]3CC[C@H](Nc4ccc([N+](=O)[O-])c(C(F)(F)F)c4)CC3)CC2)nc2ccc(Cl)cc12 [Compound 270, 1-[4-(6-chloro-4-methyl-2-quinolyl)piperazin-1-yl]-2-[4-[4-nitro-3-(trifluoromethyl)anilino]cyclohexoxy]ethanone]",≥ 90,≥ 90,–,< 1,–
"N#Cc1ccc(N[C@H]2CC[C@H](OCC(=O)N3CCN(c4ccc5cc(Br)ccc5n4)CC3)CC2)cc1C(F)(F)F [Compound 271, 2-[(4-[[4-cyano-3-(trifluoromethyl)phenyl]amino]cyclohexyl)oxy]-1-[4-(6-bromoquinolin-2-yl)piperazin-1-yl]ethan-1-one]",≥ 90,≥ 90,–,< 1,–
"N#Cc1ccc(N[C@H]2CC[C@H](OCC(=O)N3CCN(c4ccc5cc(F)ccc5c4F)CC3)CC2)cc1C(F)(F)F [Compound 290, 4-(4-{2-[4-(1,6-difluoro-naphthalen-2-yl)-piperazin-1-yl]-2-oxo-ethoxy}-cyclohexylamino)-2-trifluoromethyl-benzonitrile]",≥ 90,≥ 90,–,< 1,–
"O=C(CO[C@H]1CC[C@H](Nc2ccc([N+](=O)[O-])c(C(F)(F)F)c2)CC1)N1CCN(Cc2cc3cc(OC(F)(F)F)ccc3o2)CC1 [Compound 326, 2-[(4-[[4-nitro-3-(trifluoromethyl)phenyl]amino]cyclohexyl)-oxy]1-[4-[5-(trifluoromethoxy)benzofuran-2-ylmethyl]piperazin-1-yl]ethan-1-one]",≥ 90,≥ 90,–,–,–
"C[C@@H]1CN(CC2Cc3cc(F)ccc3O2)[C@@H](C)CN1C(=O)CO[C@H]1CC[C@H](Nc2ccc([N+](=O)[O-])c(C(F)(F)F)c2)CC1 (stereo partly drawn) [Compound 307, 1-[(2R,5S)-4-(5-fluoro-2,3-dihydro-benzofuran-2-ylmethyl)-2,5-dimethyl-piperazin-1-yl]-2-[4-(4-nitro-3-trifluoromethyl-phenylamino)-cyclohexyloxy]-ethanone]",≥ 90,≥ 90,–,< 0.1,–
"CN(c1ccc([N+](=O)[O-])c(C(F)(F)F)c1)[C@H]1CC[C@H](OCC(=O)N2CCN(c3ccc4cc(Cl)ccc4n3)CC2)CC1 [Compound 246, 1-[4-(6-chloroquinolin-2-yl)piperazin-1-yl]-2-[[4-[methyl[4-nitro-3-(trifluoromethyl)phenyl]amino]cyclohexyl]oxy]ethan-1-one]",≥ 90,≥ 90,< 1,–,–
